Literature values, collected in article PMC11187573, “Identification of SARS-CoV-2 Mpro inhibitors through deep reinforcement learning for de novo drug design and computational chemistry approaches” (RSC Medicinal Chemistry, 2024).
pIC50: −log10 of the molar value.

Tested on: Mpro
Settings: ML dataset, Origin COVID_Moonshot; ref COVID Moonshot; cited from earlier work

In order of falling pIC50:
1. Cc1ccncc1C(C(=O)NCCc1cccc(F)c1)N(C(=O)c1ccco1)c1ccc(C(C)(C)C)cc1 (stereo not drawn) [ALP-POS-02c6a514-44]  6.95
2. O=C(Nc1cncc2ccccc12)C1CCNc2cc(Cl)c(Cl)cc21 (stereo not drawn) [ALP-UNI-3735e77e-4]  6.81
3. O=C(Cc1ccc(Cl)c(Cl)c1)Nc1cncc2ccccc12 [MAT-POS-23a8a11a-1, O=C(Cc1ccc(Cl)c(Cl)c1)Nc1cncc2ccccc12, reference compound]  6.71
4. CC(C)(C)c1ccc(N(C(=O)c2cocn2)C(C(=O)NCCc2cccc(F)c2)c2cccnc2)cc1 (stereo not drawn) [ALP-POS-02c6a514-50]  6.25
5. O=C(Nc1cncc2ccccc12)C1CCN(Cc2ccn[nH]2)c2ccc(Cl)cc21 (stereo not drawn) [RAL-THA-8416115c-6]  6.10
6. Cc1ccc(CC(=O)Nc2cncc3ccccc23)cc1Cl [RAL-THA-2d450e86-8]  5.96
7. CN(C)C(=O)C[C@]1(C(=O)Nc2cncc3ccccc23)CCOc2ccc(Cl)cc21 [MAT-POS-f9802937-3]  5.88
8. O=C(Cc1ccc(Cl)c(Cl)c1)Nc1cncc2ccncc12 [VLA-UNK-82501c2c-2]  5.75
9. CC(C)(C)c1ccc(N(C(=O)c2ccn[nH]2)C(C(=O)NCCc2cccc(F)c2)c2cccnc2)cc1 (stereo not drawn) [ALP-POS-02c6a514-52]  5.75
10. CC(C)(C)c1ccc(N(C(=O)c2cocn2)C(C(=O)NC2CCOC2)c2cccnc2)cc1 (stereo not drawn) [ALP-POS-88a7a97e-30]  5.56
11. COC(=O)c1c(C)nn(C(=O)c2cccs2)c1-c1snnc1C [LON-WEI-4d77710c-66]  5.51
12. CC(C)(C(N)=O)c1ccc(N(Cc2ccsc2)C(=O)Cn2nnc3ccccc32)cc1 [ALP-POS-c0c213c9-6]  5.50
13. CC(C)(C)c1cnc(N(C(=O)c2ccco2)C(C(=O)NCCc2cccc(F)c2)c2cccnc2)s1 (stereo not drawn) [ALP-POS-b0bc6a46-12]  5.40
14. COc1cc(Cl)cc(OC(=O)Nc2cccnc2)c1 [AGN-NEW-891393a6-1]  5.39
15. CC(=O)NC(C(=O)Nc1cncc2ccccc12)c1ccc(Cl)c(Cl)c1 (stereo not drawn) [MAT-POS-1f3f1a6f-3]  5.39
16. CC(C)(C)c1ccc(N(C(=O)c2cocn2)C(C(=O)NC2COC2)c2cccnc2)cc1 (stereo not drawn) [ALP-POS-88a7a97e-34]  5.39
17. CN(C)C(C(=O)Nc1cncc2ccccc12)c1ccc(Cl)c(Cl)c1 (stereo not drawn) [MAT-POS-1f3f1a6f-2]  5.37
18. O=C(Cc1cccc(Cl)c1)Nc1cncc2c1CCC2  5.31
19. CC(C)(C)c1ccc(N(C(=O)c2cocn2)C(C(=O)NCC2CCCO2)c2cccnc2)cc1 (stereo not drawn) [ALP-POS-88a7a97e-27]  5.29
20. O=C(Cc1cc(Cl)cc(-c2nnc[nH]2)c1)Nc1cncc2ccccc12 [RAL-THA-1d44ff04-8]  5.28
21. CC(C)(C)c1ccc(N(C(=O)C2CCCO2)C(C(=O)NCCc2cccc(F)c2)c2cccnc2)cc1 (stereo not drawn) [ALP-POS-02c6a514-17]  5.25
22. Cc1ccncc1NC(=O)[C@H]1CCOc2ccc(Cl)cc21 [MAT-POS-b3e365b9-3]  5.25
23. COc1ccccc1OCCNC(=O)c1cc(=O)[nH]c2cccc(C)c12  5.18
24. O=C(CC1(C(=O)Nc2cncc3ccccc23)CCOc2ccc(Cl)cc21)N1CCN(CC(F)(F)CO)CC1 (stereo not drawn) [ALP-UNI-8e43a71e-10]  5.14
25. COc1ncncc1C(C(=O)NCCc1cccc(F)c1)N(C(=O)c1cocn1)c1ccc(C(C)(C)C)cc1 (stereo not drawn) [ALP-POS-d0876c20-19]  5.07
26. CC(C)(C)c1ccc(N(C(=O)c2cocn2)C(C(=O)NCC(=O)OCc2ccccc2)c2cccnc2)cc1 (stereo not drawn) [ALP-POS-88a7a97e-44]  5.00
27. O=C(c1cc(=O)[nH]c2ccccc12)N1CCN(Cc2ccccc2)CC1 [BEN-DND-7e92b6ca-10]  4.86
28. CCOc1ccc(N(C(=O)c2cocn2)C(C(=O)NCCc2cccc(F)c2)c2cccnc2)cc1 (stereo not drawn) [ALP-POS-ced8ea4d-67]  4.81
29. CN1C(=O)CC(O)(C(=O)Nc2cncc3ccccc23)c2cc(Cl)ccc21 (stereo not drawn) [MAT-POS-f9802937-2]  4.68
30. O=C(NCCc1cccc(F)c1)C(c1cccnc1)N(C(=O)c1c[nH]cn1)c1ccc(OC(F)F)cc1 (stereo not drawn) [BRU-THA-92256091-16]  4.65
31. O=C(NCCc1cccc(F)c1)C(c1cccnc1)N(C(=O)c1c[nH]cn1)c1ccc(C2COC2)cc1 (stereo not drawn) [BRU-THA-92256091-80]  4.64
32. O=C(Cc1ccc(Cl)cc1)Nc1cncc2ccccc12 [RAL-THA-2d450e86-2]  4.63
33. O=C(Nc1cnccc1Cl)c1cc(Cl)ccc1O [CHR-SOS-7098f804-10]  4.62
34. Cn1ccc2cc(N(C(=O)c3cocn3)C(C(=O)NCCc3cccc(F)c3)c3cccnc3)ccc21 (stereo not drawn) [ALP-POS-ced8ea4d-20]  4.62
35. CC(C)(C)c1ccc(N(C(=O)c2cncs2)C(C(=O)NCCc2cccc(F)c2)c2cccnc2)cc1 (stereo not drawn) [ALP-POS-305f6ec3-41]  4.62
36. O=C(Cc1cncnc1)Nc1cc(F)cc(OC2CC(=O)N2)c1 (stereo not drawn)  4.60
37. O=C(NCCc1cccc(F)c1)C(c1cccnc1)N(C(=O)c1cnc[nH]1)c1ccc(OC2CCOC2)cc1 (stereo not drawn) [ALP-POS-e980f4ea-32]  4.59
38. O=C(NCCc1cccc(F)c1)C(c1cccnc1)N(C(=O)c1cocn1)c1cn(Cc2ccccc2)cn1 (stereo not drawn) [ALP-POS-ced8ea4d-35]  4.56
39. CC(C)Cn1cc(NC(=O)NCc2ccco2)c2ccccc2c1=O [LON-WEI-4d77710c-44]  4.53
40. COc1ccc(N(C(=O)c2ccco2)C(C(=O)NCCc2cccc(F)c2)c2cccnc2)cc1 (stereo not drawn) [ALP-POS-b0bc6a46-22]  4.52
41. O=C(c1cc(=O)[nH]c2ccccc12)N1CCN(c2ccc(F)cc2)CC1 [BEN-DND-7e92b6ca-14]  4.46
42. Cn1nncc1CC(=O)NC(c1ccccc1)c1nc2ccccc2n1C (stereo not drawn) [BAR-COM-4e090d3a-6]  4.45
43. O=C(Nc1cccnc1)c1cc(Cl)ccc1-c1ccccc1 [CHR-SOS-7098f804-14]  4.41
44. Cn1ncc2cc(N(C(=O)c3cocn3)C(C(=O)NCCc3cccc(F)c3)c3cccnc3)ccc21 (stereo not drawn) [ALP-POS-ced8ea4d-8]  4.32
45. Cc1ccncc1NC(=O)CN1C(=O)COc2ccc(Cl)cc21  4.31
46. CC(=O)NCc1cc(Cl)cc(CC(=O)Nc2cnccc2C)c1  4.31
47. Cc1ccc(N(C(=O)c2cocn2)C(C(=O)NCCc2cccc(F)c2)c2cccnc2)cc1 (stereo not drawn) [ALP-POS-ced8ea4d-27]  4.30
48. Cc1ccncc1NC(=O)Cc1cccc(C#N)c1  4.28
49. N#Cc1cccc(NC(=O)Nc2cncc(N)c2)c1 [DAR-DIA-23aa0b97-8]  4.27
50. Cc1ccncc1NC(=O)Nc1cccc(Cl)c1  4.26
51. O=C(NCCc1cccc(F)c1)C(c1cccnc1)N(C(=O)c1cocn1)c1ccc2ncsc2c1 (stereo not drawn) [ALP-POS-ced8ea4d-24]  4.22
52. O=C(Nn1nnc2ccccc21)C(Cc1cccc(Cl)c1)c1ccc(N2CCCCC2=O)cc1 (stereo not drawn) [ALP-POS-a3de0cb1-13]  4.18
53. O=C(Cc1cc(Cl)cc(OC2CCC(=O)N2)c1)Nc1cncc2ccccc12 (stereo not drawn) [MAT-POS-9ff17035-1]  4.07

Same assay, conditions: ML dataset, Origin ChEMBL; ref ChEMBL; cited from earlier work

In order of rising pIC50:
1. O=S(=O)(Cc1[nH]c(-c2ccc(Cl)s2)c[s+]1)c1cccs1 [CHEMBL215733]  4.74
2. Nc1ccc2cc3ccc(N)cc3nc2c1 [CHEMBL465704, CHEMBL55400]  6.23
3. Cc1ccc(-n2sc(=O)n(Cc3ccc(F)cc3)c2=O)cc1 [CHEMBL1917204, Cc(cc1)ccc1N(C(N1Cc(cc2)ccc2F)=O)SC1=O, reference compound]  6.72
4. Cn1sc(=O)n(Cc2ccccc2)c1=O [CHEMBL284861, CN(C(N1Cc2ccccc2)=O)SC1=O, reference compound]  6.85
